US6916607B2, “PEPTIDES AND PO[…] FROM THE SU[…] OF THE RAT COR[…] […] COR[…] USES OF THESE PRODUCTS FOR DIAGNOSIS FOR DETECTION OR T[…]” (Institute Pasteur, priority 1988, dated 2005)

System: mRNA coding for SMR1 in the SMG
Assay: Regulation of the accumulation of mRNA coding for SMR1 in the SMG of the rat by androgens (RNA transfer and hybridization with SMR1 cDNA probe)
Type: in vivo, Wistar rats
Experimental: 10 weeks old male and female Wistar rats were obtained from Iffa-Credo. The androgens were removed by castration and 10 days later 35 mg of testosterone (Sterandryl retard, Roussel) were injected by the intraperitoneal route in the cases indicated. In the cases indicated, the same dose of testosterone was administered to female rats. 8 weeks old DBA/2 and “Swiss” mice were obtained from the Pasteur Institute.
The RNA was prepared from rat and mouse tissues as described in the literature (Tronik D. et al. 1987, EMBO J. 6, 983-987). The in vitro translation of the RNAs was carried out by using the mRNA-dependent translation system as a lysate in the presence of mRNA-dependent reticulocytes (Pelham H. RB et al., 1976, Eur. J. Biochem. 67, 247-256). The products were analysed by electrophoresis on a denaturing polyacrylamide-NaDodSO4 gel. […]
Furthermore, various amounts (as indicated in the figure) of RNA from the SMG of male rats and female rats were subjected to electrophoresis on a 2% agarose-formaldehyde gel, they were transferred to filters and hybridized with the cDNA probe coding for SMR1. […] As is apparent in part B, the mRNA coding for SMR1 accumulates in very large quantities in the SMG of male Wistar rats, since an amount as low as 1.5 ng of total RNA was sufficient to give a hybridization signal. […]

Q: Which results are given for C[C@]12CC[C@H]3[C@@H](CCC4=CC(=O)CC[C@@]43C)[C@@H]1CC[C@@H]2O [testosterone]?
A: accumulation of mRNA coding for SMR1 in the SMG (adult female rats, same dose (35 mg) of testosterone): caused the accumulation of mRNA coding for SMR1 in amounts similar to that observed in the males; amount of mRNA coding for SMR1 in the SMG (castrated male rats, 35 mg testosterone by the intraperitoneal route 10 days after castration): restored the amount of mRNA coding for SMR1 to the same value as that observed in the non-castrated males
